Data: PubChem BioAssay (NCI)
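Protocol summary: plate cells (96-well), add compound at 5 concentrations, incubate 48 h, interpolate endpoints linearly. TGI denotes the concentration required for complete inhibition of growth.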

Assays:
Assay in all cases: DTP human tumour cell line panel, 48 h
OVCAR-4 ovarian = system: OVCAR-4 ovarian
COLO 205 colon = system: COLO 205 colon
NCI/ADR-RES ovarian = system: NCI/ADR-RES ovarian
A549 NSCLC = system: A549 NSCLC
HCC-2998 colon = system: HCC-2998 colon
PC-3 prostate = system: PC-3 prostate
HOP-92 NSCLC = system: HOP-92 NSCLC
HCT-116 colon = system: HCT-116 colon
EKVX NSCLC = system: EKVX NSCLC
DU-145 prostate = system: DU-145 prostate
SR leukemia = system: SR leukemia
MDA-N = system: MDA-N
U251 CNS = system: U251 CNS
RPMI-8226 leukemia = system: RPMI-8226 leukemia
HL-60(TB) leukemia = system: HL-60(TB) leukemia

Structure (SMILES)	TGI (OVCAR-4 ovarian) [µM]	TGI (COLO 205 colon) [µM]	TGI (NCI/ADR-RES ovarian) [µM]	TGI (A549 NSCLC) [µM]	TGI (HCC-2998 colon) [µM]	TGI (PC-3 prostate) [µM]	TGI (HOP-92 NSCLC) [µM]	TGI (HCT-116 colon) [µM]	TGI (EKVX NSCLC) [µM]	TGI (DU-145 prostate) [µM]	TGI (SR leukemia) [µM]	TGI (MDA-N) [µM]	TGI (U251 CNS) [µM]	TGI (RPMI-8226 leukemia) [µM]	TGI (HL-60(TB) leukemia) [µM]
CCCN(CCCc1ccccc1)CCc1ccc2[nH]c(=S)[nH]c2c1	> 100	42.6	> 100	> 100	26	> 100	42.6	> 100	> 100	> 100	25.1	41.7	> 100	39.9	
CNc1ccc2c(c1)[C@@]1(C)c3ccccc3[C@@H](C2)N1C	> 100		64.2	> 100	44.5	> 100	74.4	33.4	97.3	> 100	54.7	74.7	47.5	38.9	38.5
CC[C@@H]1CC[C@@H]2[C@H](CC[C@]3(C)[C@@H](OS(=O)(=O)c4ccc(C)cc4)CC[C@@H]23)[C@H]1COS(=O)(=O)c1ccc(C)cc1	> 100		> 100	> 100	> 100	> 100	> 100	> 100	> 100	> 100	> 100	> 100	> 100	> 100	> 100
COC(=O)C1CN=CN1CCc1ccccc1 (stereo not given)	> 100	> 100	> 100	> 100	> 100	> 100	> 100	> 100	> 100	> 100	> 100	> 100	> 100	> 100	> 100
Cn1c2ccc3cc2c(=S)c2cc(ccc21)OCCOCCOCCOCCOCCO3	> 10	> 10	> 10	> 10	> 10	> 10	> 10	> 10	> 10	> 10	> 10	> 10	> 10	> 10	> 10
CC(=O)O[C@H]1C(=O)[C@@]2(C)[C@H]([C@H](OC(=O)c3ccccc3)[C@]3(O)C[C@H](OC(=O)[C@H](O)[C@@H](NC(=O)c4cccc(N=[N+]=[N-])c4)c4ccccc4)C(C)=C1C3(C)C)[C@]1(OC(C)=O)CO[C@@H]1C[C@@H]2O	> 25	0.0405	> 25	> 25		> 25	> 23.9		> 25		0.162	0.00735	0.635	0.134	< 0.0025
O=C1NCc2ccccc2S(=O)(=O)n2cccc21	> 100	> 100	> 100	> 100	> 100	> 100		> 100	> 100	> 100	> 100	> 100	> 100	> 100	> 100
COc1cc(-c2cc(-c3ccccc3)nc(-c3c(OC)ccc4c(C)cc(=O)oc34)c2)cc(OC)c1OC	> 100	> 100	> 100	> 100	> 100	> 100	> 100	> 100	> 100	> 100	> 100	> 100	> 100		> 100
C=CCc1cccc2cc(C(=O)Nc3ccccc3)c(=N)oc12	74.9	> 100	> 100	> 100	18.4	> 100	> 100	> 100		> 100	> 100	> 100	> 100	> 100	> 100
CC(=O)OCC1OC(c2nc3ccccc3s2)=CC(OC(C)=O)C1OC(C)=O (stereo not given)	> 100	> 100	> 100	> 100		> 100		> 100	> 100	> 100	> 100	> 100	> 100	> 100	> 100
CCOC(=O)c1cn2c(n1)sc1c(Cl)c(Cl)ccc12	> 100	19.1	97.9	> 100	98	> 100	> 100	33	> 100	> 100	> 55.2	3.83	> 100	> 100	
CN(C)CCNC(=O)c1cc([N+](=O)[O-])cc2c1Oc1ccccc1O2	> 100	33.3	> 100	> 100	24.1	> 100		> 100	> 100	> 100	> 100	> 100	> 100	> 100	> 100
O=c1c2nc3ccccc3c(=O)n2ncn1-c1ccccc1Cl	> 100	> 100		> 100	> 100	> 100	> 100	> 100	> 100	> 100	> 100	> 100	> 100	> 100	> 100
C[C@H](NC(=O)c1ccc(CNC(=O)/C=C/c2cccc(Oc3ccccc3)c2)cc1)c1ccccc1	> 100	> 100	> 100	> 100	> 100	> 100	> 100	> 100	> 100	> 100	> 100	> 100	> 100	> 100	
COc1cc(CO)c(CC(=O)NCCCc2ccccc2)cc1OC	> 100	> 100	> 100	> 100	> 100	> 100	> 100	> 100	> 100	> 100	> 100	> 100	> 100		> 100
CN(C)CCCNc1ccc([N+](=O)[O-])c2nc3ccccc3c(N)c12	0.595		1.84	2.37		1.69	5.08	1.33	2.35	1.75	> 10	2.18	2.12	2.14	

Structure (SMILES)	TGI (OVCAR-4 ovarian) [µM]	TGI (COLO 205 colon) [µM]	TGI (NCI/ADR-RES ovarian) [µM]	TGI (A549 NSCLC) [µM]	TGI (HCC-2998 colon) [µM]	TGI (PC-3 prostate) [µM]	TGI (HOP-92 NSCLC) [µM]	TGI (HCT-116 colon) [µM]	TGI (EKVX NSCLC) [µM]	TGI (DU-145 prostate) [µM]	TGI (SR leukemia) [µM]	TGI (MDA-N) [µM]	TGI (U251 CNS) [µM]	TGI (RPMI-8226 leukemia) [µM]	TGI (HL-60(TB) leukemia) [µM]
S=C1N(/N=C/c2c3ccccc3cc3ccccc23)C(=Nc2ccccc2)C(=Nc2ccccc2)N1c1ccccc1		> 100	> 100	> 100	> 100	> 100	> 100	> 100	> 100	> 100	> 100	> 100	> 100	> 100	
O=C1NC(=S)N/C1=C\c1ccc(Br)s1	> 100	> 100			> 100	> 100	> 100	> 100	> 100	> 100	> 100	> 100	> 100	81.3	> 100
COc1ccc(-n2c(=O)[nH]n(C(C)=O)c2=O)cc1	> 100	> 100	> 100	> 100		> 100	> 100	> 100	> 100	> 100	> 100	> 100	> 100	> 100	> 100
O=C(CCCN1CCC2(CC1)CC(=O)N(N1CCCCCC1)C2=O)c1ccccc1	> 100	> 100	> 100	> 100		> 100	> 100	> 100	> 100	> 100	> 100	> 100	> 100	> 100	> 100
CN1CCN(c2ncc3c(n2)sc2c(=O)n(-c4ccccc4)cnc23)CC1	> 100	> 100	> 100	> 100	> 100	> 100	> 100	> 100		> 100	> 100	> 100	> 100	> 100	
O=S(Nc1ccccc1)c1cccc(Cl)c1 (stereo not given)		> 100	> 100	> 100	76.3	> 100		> 100	> 100	> 100	> 100	> 100	> 100	> 100	> 100
CCn1c(SCC(=O)NNC(=S)Nc2ccc([N+](=O)[O-])cc2)nc2ccccc2c1=O	> 100	> 100	> 100	> 100	> 100	> 100		> 100	> 100	> 100	> 100	> 100	> 100	> 100	> 100
COC(=O)CNS(=O)(=O)c1ccc(-c2c3nc(c(-c4ccc(S(=O)(=O)NCC(=O)OC)cc4)c4ccc([nH]4)c(-c4ccc(S(=O)(=O)NCC(=O)OC)cc4)c4nc(c(-c5ccc(S(=O)(=O)NCC(=O)OC)cc5)c5ccc2[nH]5)C=C4)C=C3)cc1	> 100	> 100	> 100	> 100	> 100	> 100		> 100	> 100	> 100	> 100	> 100	> 100	> 100	> 100
Cn1c(O)c(C=Nc2ccccc2[N+](=O)[O-])c(=O)n(C)c1=O	> 100	> 100	> 100	> 100	> 100	> 100	> 100	> 100	> 100		> 100	> 100	> 100	> 100	
CC(C)OCC1CC(CC(=O)Nc2nncs2)C(=O)O1 (stereo not given)	> 100	> 100	> 100	> 100	> 100	> 100	> 100	> 100	> 100	> 100	> 100	> 100	> 100	> 100	
CCSc1n/c(=C\c2ccco2)c2nncn12		> 100	> 100	> 100		> 100	> 100	> 100	> 100	> 100	> 100	> 100	> 100	> 100	> 100
O=C(CCc1ccc(O)c(O)c1)NCCc1cc(O)cc(O)c1		> 100	> 100	> 100	> 100	> 100	> 100	> 100	> 100	> 100	> 100	48.1	> 100	> 100	> 100
CCOC(=O)Cn1c(=O)c2nc(SC)sc2n(CC)c1=S	> 100	> 100	> 100	> 100	> 100	> 100	> 100	> 100		> 100	> 100	> 100	> 100	> 100	> 100
Nc1cccc(/C=C/C(=O)N2CCN(CCOC(c3ccccc3)c3ccccc3)CC2)c1	26.1	33.1	37.3	34.3		28.9	26.2	28.9	36.2	28.5	30.9	35.9	29.3	26.7	32
O=C1CSC(c2ccc([N+](=O)[O-])cc2)N1c1ccc(-n2c(-c3ccccc3)nc3ccccc3c2=O)cc1 (stereo not given)	95.7	> 100	> 100	> 100	> 100	> 100		> 100	> 100	> 100	> 100	> 100	> 100	> 100	> 100
